Laboratory results: US20230404081A1, “A FORMULATION AND A METHOD FOR INDUCING DEFENSE RESPONSE IN PLANTS” (NATIONAL INSTITUTE OF PLANT GENOME RESEARCH, priority 2020, published 2023)

Assays:
[1] = system: salicylic acid (SA); test: Salicylic acid (SA) estimation in distal leaves; settings: distal leaf samples, 6h post-sodium dithionite treatment, vs control plants
Description: Since salicylic acid (SA) is important in the induction of systemic acquired resistance in plants, the distal leaf samples were collected for SA estimation at 6h post-sodium dithionite treatment.

[2] = system: tomato leaves; test: Hypersensitive response like symptoms on tomato leaves under sodium dithionite coated Whatman filter paper stickers; format: in vivo; settings: tomato leaves (Pusa Rubi), stickers on adaxial surface for 3 hours, followed till 24 h
Description: To check whether sodium dithionite is able to induce plants innate immune response, square stickers from Whatman filter papers were coated with sodium dithionite under anoxic conditions (FIG. 4). These stickers were stacked on the adaxial surface of tomato leaves for 3 hours (FIG. 5). The variety of the tomato plant used for the purposes of present disclosure is Pusa Rubi accessed from Indian Agricultural Research Institute, New Delhi, India.

[3] = system: nitric oxide (NO); format: in vivo, tomato

## O=S([O-])S(=O)[O-].[Na+].[Na+] [sodium dithionite]
[1]
  SA accumulation in distal leaves: significant accumulation of SA
[2]
  hypersensitive response like symptoms: Hypersensitive response like symptoms started developing just after the treatment and was increased till 24 h
[3]; in vivo
  NO levels (DAF-FM DA) after further treatment with avirulent Pseudomonas syringae: Larger spots representing bursts of NO were observed
[3]; tomato leaves treated with sodium dithionite strips alone
  NO production (DAF-FM DA): Increased microbursts of NO
